Data taken from patent US20250161248A1, “Treating Chronic Myelomonocytic Leukemia with CXCL8 Receptor Inhibitors” (Institut Gustave Roussy, priority 2023, published 2025).
Entries after “also recorded” stand apart in the source; their conditions may differ.

Experiments:
[1] = test system: wildtype CD34+ cells (cord blood, healthy donor bone marrow); experiment: CD34+ liquid culture, cell output/proliferation (healthy donor cells); format: cell-based, human; conditions: for proliferation of wildtype CD34+ cells in liquid culture: inhibitor 10 uM in combination with CXCL8 10 ng/mL, FIG. 12E
Method: (§1) Reagents, CXCR1/2 inhibitors Reparixin and Ladarixin were from MedChemTronica and Clinisciences, respectively, dissolved in dimethylsulfoxide (DMSO). Stem cell factor recombinant (SCF), interleukin-3 recombinant (IL-3), thrombopoietin recombinant (TPO), Fms-like tyrosine kinase 3 recombinant (FLT-3) and Interleukin 8 (IL-8 or CXCL8) were from Peprotech.
(§2) CD34^+ cultures, CD34^+ cells were cultured for 72 h at 1×10^5 cells/ml in complete MEM-alpha medium, SCF (50 ng/mL), IL-3 (10 ng/mL), TPO (10 ng/mL) and FLT-3 (50 ng/mL […]), to which CXCL8 was added in a 37° C. incubator with 5% CO2. Cells were counted after Trypan blue staining. For methylcellulose assays, CD34+ cells were plated in duplicate, at 500 cells with 1 mL complete methylcellulose (MethoCult™ H4034 Optimum, Stem cell) with indicated doses of CXCL8. Colonies were enumerated and phenotyped at day 14.

CMML CD34+ cells [2] = experiment: Methylcellulose colony formation assay (CMML cells); format: cell-based, human; conditions: methylcellulose with CXCL8
Method: as §2

CMML CD34+ cells [3] = experiment: CD34+ liquid culture, cell output/proliferation (CMML cells); format: cell-based, human; conditions: liquid culture with CXCL8
Method: as §2

[4] = test system: healthy donor CD34+ cells (cord blood, bone marrow); experiment: Methylcellulose colony formation assay (healthy donor cells); format: cell-based, human; conditions: for colony forming capacity of wildtype CD34+ cells (total colony output): inhibitor 10 mM (so in the source) in combination with CXCL8 10 ng/mL, FIG. 6F
Method: as §1, §2

[5] = test system: neutrophil-dependent airway inflammation; conditions: mice; cited from earlier work
[6] = test system: pancreatic ductal adenocarcinoma (PDAC); conditions: cited from earlier work
uveal melanoma = conditions: animal model of uveal melanoma; cited from earlier work
[7] = test system: triple negative breast cancer; conditions: phase II, in combination with paclitaxel; cited from earlier work
[8] = test system: thyroid cancer tumor cells; conditions: in vitro; cited from earlier work
CXCR1 and CXCR2 = conditions: CXCR1 over CXCR2; cited from earlier work
[9] = test system: ischemia-reperfusion injury; conditions: clinical studies; cited from earlier work
[10] = test system: HER-2 negative metastatic breast cancer; conditions: phase I, in combination with paclitaxel chemotherapy; cited from earlier work

| Compound | cord blood CD34+ cell proliferation ([1]; liquid culture with indicated doses of CXCL8, FIG. 6A) | adult healthy donor bone marrow CD34+ cell proliferation ([1]; liquid culture, CXCL8 10 ng/mL, 72 hours, FIG. 12A, 12E) | CMML CD34+ cell proliferation in colony formation assays (CMML CD34+ cells [2]) | CMML CD34+ cell proliferation (CMML CD34+ cells [3]) | colony number / colony forming capacity of healthy cord blood or bone marrow CD34+ cells ([4]; 14 days, CXCL8, CFU-GM and CFU-E affected, FIG. 6B, 6F) | neutrophil-dependent airway inflammation [5] | antitumor activity of combination ([6]; mouse PDAC model, ladarixin combined with an anti-PD-1 monoclonal antibody) | activity in PDAC model ([6]; mouse model, ladarixin) | proliferation of wildtype CD34+ cells in liquid culture [1] | TAM polarization (uveal melanoma) | tumor cell migration (uveal melanoma) | colony forming capacity of wildtype CD34+ cells (total colony output) [4] | clinical benefit compared to paclitaxel alone [7] | direct anti-tumor activity, tumor cell proliferation [8] | potency to inhibit CXCR1 activity relative to CXCR2 (CXCR1 and CXCR2) [fold] | neutrophil recruitment and inflammatory injury in ischemia-reperfusion [9] | healthy donor CD34+ colony formation in presence of IGRAN supernatant ([4]; IGRAN supernatant plus reparixin 10 mM (so in the source), FIG. 6G) | tolerability [10] |
| --- | --- | --- | --- | --- | --- | --- | --- | --- | --- | --- | --- | --- | --- | --- | --- | --- | --- | --- |
| CXCL8: Interleukin 8 (IL-8 or CXCL8) chemokine from Peprotech, added to CD34+ cultures | dose-dependent inhibition | decreased | not affected | failed to inhibit | decrease in colony number; also recorded: decreased colony forming capacity | – | – | – | – | – | – | – | – | – | – | – | – | – |
| C[C@@H](C(=O)NS(C)(=O)=O)c1ccc(OS(=O)(=O)C(F)(F)F)cc1 [ladarixin, 4-[(2 R)-1-oxo-1-(methanesulfonamido)propan-2-yl]phenyl trifluoromethanesulfonate] | – | – | – | – | – | improves neutrophil-dependent airway inflammation | improved antitumor activity compared to either agent alone | significant activity | restored | repolarized TAMs to a M1 phenotype | inhibited tumor cell migration | restored | – | – | – | – | – | – |
| CC(C)Cc1ccc([C@@H](C)C(=O)NS(C)(=O)=O)cc1 [reparixin, R-(−)-2-(4-isobutylphenyl)propionyl methansulfonamide] | – | – | – | – | – | – | – | – | restored | – | – | restored | no additional clinical benefit | inhibiting tumor cell proliferation | 400 | effectively regulate neutrophil recruitment and attenuate inflammatory injury | blocked the inhibitory effects of this supernatant | well tolerated |
